Where “and” joins values, the source holds several entries; their conditions need not be identical. Identical values can stand only once. Values belong to the compound of their own block, whether it stands above or below them.
System: 171881-019-R-J1-PDC complex spheroid growth, % test/control
Assay: Anticancer human tumor 171881-019-R-J1-PDC patient-derived invasive breast carcinoma cell line growth inhibition [Asc]
Conditions: for viability, T/C: stronger effect = lower value
Procedure, shortened: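 Concentration series start at each agent's clinical Cmax, or at 10 microM when none is established, and drop in half-log steps; agents are applied alone or together to complex spheroids built with HUVEC and hMSC.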

[1] = curve of first compound, second compound 0.01 µM
[2] = curve of first compound, second compound 0.0316 µM
[3] = curve of first compound, second compound 0.1 µM
[4] = curve of first compound, second compound 0.316 µM
[5] = curve of first compound, second compound 1 µM
[6] = second compound 0.01 µM, first compound 0.0316 µM
[7] = second compound 0.01 µM, first compound 0.1 µM
[8] = second compound 0.01 µM, first compound 0.316 µM
[9] = second compound 0.01 µM, first compound 1 µM
[10] = second compound 0.0316 µM, first compound 0.0316 µM
[11] = second compound 0.0316 µM, first compound 0.1 µM
[12] = second compound 0.0316 µM, first compound 0.316 µM
[13] = second compound 0.0316 µM, first compound 1 µM
[14] = second compound 0.1 µM, first compound 0.0316 µM
[15] = second compound 0.1 µM, first compound 0.1 µM
[16] = second compound 0.1 µM, first compound 0.316 µM
[17] = second compound 0.1 µM, first compound 1 µM
[18] = second compound 0.316 µM, first compound 0.0316 µM
[19] = second compound 0.316 µM, first compound 0.1 µM
[20] = second compound 0.316 µM, first compound 0.316 µM
[21] = second compound 0.316 µM, first compound 1 µM
[22] = second compound 1 µM, first compound 0.0316 µM
[23] = second compound 1 µM, first compound 0.1 µM
[24] = second compound 1 µM, first compound 0.316 µM
[25] = second compound 1 µM, first compound 1 µM
[26] = second compound 0.01 µM, first compound 3.16 µM
[27] = second compound 0.01 µM, first compound 10 µM
[28] = second compound 0.0316 µM, first compound 3.16 µM
[29] = second compound 0.0316 µM, first compound 10 µM
[30] = second compound 0.1 µM, first compound 3.16 µM
[31] = second compound 0.1 µM, first compound 10 µM
[32] = second compound 0.316 µM, first compound 3.16 µM
[33] = second compound 0.316 µM, first compound 10 µM
[34] = second compound 1 µM, first compound 3.16 µM
[35] = second compound 1 µM, first compound 10 µM
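Throughout, for viability, T/C: spheroids exposed to compounds for 7 days.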

IC50 (curve of first compound, second compound 0.03 µM): > 3 µM
IC50 (curve of first compound, second compound 0.0949 µM): > 3 µM
IC50 (curve of first compound, second compound 0.3 µM): > 3 µM
IC50 (curve of first compound, second compound 0.949 µM): > 3 µM
IC50 (curve of first compound, second compound 3 µM): > 3 µM
Compound: Cc1nc(N2CCC3(CC2)COC(C)C3N)c(CO)nc1Sc1ccnc(N)c1Cl (centres undefined) + CCN1C(C(=O)NC23CCC(C(=O)O)(CC2)CC3)C(c2cccc(Cl)c2F)C2(C(=O)Nc3cc(Cl)ccc32)C12CCCCC2
viability, T/C (second compound 0.03 µM, first compound 0.00949 µM): 87.3%
viability, T/C (second compound 0.03 µM, first compound 0.03 µM): 101%
viability, T/C (second compound 0.03 µM, first compound 0.0949 µM): 153%
viability, T/C (second compound 0.03 µM, first compound 0.3 µM): 152%
viability, T/C (second compound 0.03 µM, first compound 0.949 µM): 126%
viability, T/C (second compound 0.03 µM, first compound 3 µM): 109%
viability, T/C (second compound 0.0949 µM, first compound 0.00949 µM): 80.7%
viability, T/C (second compound 0.0949 µM, first compound 0.03 µM): 99.1%
viability, T/C (second compound 0.0949 µM, first compound 0.0949 µM): 165%
viability, T/C (second compound 0.0949 µM, first compound 0.3 µM): 178%
viability, T/C (second compound 0.0949 µM, first compound 0.949 µM): 121%
viability, T/C (second compound 0.0949 µM, first compound 3 µM): 114%
viability, T/C (second compound 0.3 µM, first compound 0.00949 µM): 112%
viability, T/C (second compound 0.3 µM, first compound 0.03 µM): 109%
viability, T/C (second compound 0.3 µM, first compound 0.0949 µM): 158%
viability, T/C (second compound 0.3 µM, first compound 0.3 µM): 171%
viability, T/C (second compound 0.3 µM, first compound 0.949 µM): 141%
viability, T/C (second compound 0.3 µM, first compound 3 µM): 103%
viability, T/C (second compound 0.949 µM, first compound 0.00949 µM): 90.8%
viability, T/C (second compound 0.949 µM, first compound 0.03 µM): 105%
viability, T/C (second compound 0.949 µM, first compound 0.0949 µM): 134%
viability, T/C (second compound 0.949 µM, first compound 0.3 µM): 184%
viability, T/C (second compound 0.949 µM, first compound 0.949 µM): 134%
viability, T/C (second compound 0.949 µM, first compound 3 µM): 95.2%
viability, T/C (second compound 3 µM, first compound 0.00949 µM): 109%
viability, T/C (second compound 3 µM, first compound 0.03 µM): 127%
viability, T/C (second compound 3 µM, first compound 0.0949 µM): 175%
viability, T/C (second compound 3 µM, first compound 0.3 µM): 166%
viability, T/C (second compound 3 µM, first compound 0.949 µM): 122%
viability, T/C (second compound 3 µM, first compound 3 µM): 105%

IC50 [1]: 0.0324 µM
IC50 [2]: 0.0308 µM
IC50 [3]: 0.0296 µM
IC50 [4]: 0.0281 µM
IC50 [5]: 0.0287 µM
Compound: COc1c(OCCCN2CCOCC2)ccc2c3n(c(=NC(=O)c4cnc(N)nc4)nc12)CCN3 + CNC(C)C(=O)NC1CN(S(=O)(=O)c2cccc(S(=O)(=O)N3CCC4CCC(C(=O)NC(c5ccccc5)c5ccccc5)N4C(=O)C(NC(=O)C(C)NC)C3)c2)CCC2CCC(C(=O)NC(c3ccccc3)c3ccccc3)N2C1=O
viability, T/C (second compound 0.01 µM, first compound 0.00316 µM): 196%
viability, T/C (second compound 0.01 µM, first compound 0.01 µM): 133%
viability, T/C [6]: 49.7%
viability, T/C [7]: 15.9%
viability, T/C [8]: 4.61%
viability, T/C [9]: 2.61%
viability, T/C (second compound 0.0316 µM, first compound 0.00316 µM): 215%
viability, T/C (second compound 0.0316 µM, first compound 0.01 µM): 137%
viability, T/C [10]: 46.5%
viability, T/C [11]: 15.6%
viability, T/C [12]: 4.08%
viability, T/C [13]: 1.97%
viability, T/C (second compound 0.1 µM, first compound 0.00316 µM): 203%
viability, T/C (second compound 0.1 µM, first compound 0.01 µM): 135%
viability, T/C [14]: 43.8%
viability, T/C [15]: 13.1%
viability, T/C [16]: 3.67%
viability, T/C [17]: 2.63%
viability, T/C (second compound 0.316 µM, first compound 0.00316 µM): 182%
viability, T/C (second compound 0.316 µM, first compound 0.01 µM): 122%
viability, T/C [18]: 41%
viability, T/C [19]: 11.9%
viability, T/C [20]: 3.14%
viability, T/C [21]: 1.94%
viability, T/C (second compound 1 µM, first compound 0.00316 µM): 210%
viability, T/C (second compound 1 µM, first compound 0.01 µM): 125%
viability, T/C [22]: 43.8%
viability, T/C [23]: 10.4%
viability, T/C [24]: 3.22%
viability, T/C [25]: 2.13%

IC50 (compound alone, run of 10/03/2022): > 1 µM
IC50 (curve of compound): > 1 µM
Compound: CNC(C)C(=O)NC1CN(S(=O)(=O)c2cccc(S(=O)(=O)N3CCC4CCC(C(=O)NC(c5ccccc5)c5ccccc5)N4C(=O)C(NC(=O)C(C)NC)C3)c2)CCC2CCC(C(=O)NC(c3ccccc3)c3ccccc3)N2C1=O (centres undefined)
viability, T/C (compound 0.00316 µM): 102% and 97.8%
viability, T/C (compound 0.1 µM): 95.1% [middle of 15 runs]

IC50 [1]: > 10 µM
IC50 [2]: > 10 µM
IC50 [3]: > 10 µM
IC50 [4]: > 10 µM
IC50 [5]: > 10 µM
Compound: C=CC(=O)N1CCN(c2nc(=O)n(-c3c(C)ccnc3C(C)C)c3nc(-c4c(O)cccc4F)c(F)cc23)C(C)C1 (centres undefined) + CNC(C)C(=O)NC1CN(S(=O)(=O)c2cccc(S(=O)(=O)N3CCC4CCC(C(=O)NC(c5ccccc5)c5ccccc5)N4C(=O)C(NC(=O)C(C)NC)C3)c2)CCC2CCC(C(=O)NC(c3ccccc3)c3ccccc3)N2C1=O
viability, T/C [6]: 105%
viability, T/C [7]: 94.4%
viability, T/C [8]: 84.8%
viability, T/C [9]: 96%
viability, T/C [26]: 95.7%
viability, T/C [27]: 85.8%
viability, T/C [10]: 110%
viability, T/C [11]: 97.7%
viability, T/C [12]: 97.8%
viability, T/C [13]: 85.7%
viability, T/C [28]: 85.2%
viability, T/C [29]: 80.3%
viability, T/C [14]: 99.2%
viability, T/C [15]: 92.4%
viability, T/C [16]: 95.9%
viability, T/C [17]: 98.6%
viability, T/C [30]: 96%
viability, T/C [31]: 96.2%
viability, T/C [18]: 95.1%
viability, T/C [19]: 95.3%
viability, T/C [20]: 103%
viability, T/C [21]: 107%
viability, T/C [32]: 94%
viability, T/C [33]: 86.8%
viability, T/C [22]: 110%
viability, T/C [23]: 110%
viability, T/C [24]: 86%
viability, T/C [25]: 96.6%
viability, T/C [34]: 96.2%
viability, T/C [35]: 96.8%

IC50 [1]: > 10 µM
IC50 [2]: > 10 µM
IC50 [3]: > 10 µM
IC50 [4]: > 10 µM
IC50 [5]: > 10 µM
Compound: O=C(c1cc(Cc2n[nH]c(=O)c3ccccc23)ccc1F)N1CCN(C(=O)C2CC2)CC1 + CNC(C)C(=O)NC1CN(S(=O)(=O)c2cccc(S(=O)(=O)N3CCC4CCC(C(=O)NC(c5ccccc5)c5ccccc5)N4C(=O)C(NC(=O)C(C)NC)C3)c2)CCC2CCC(C(=O)NC(c3ccccc3)c3ccccc3)N2C1=O
viability, T/C [6]: 101%
viability, T/C [7]: 107%
viability, T/C [8]: 109%
viability, T/C [9]: 118%
viability, T/C [26]: 104%
viability, T/C [27]: 128%
viability, T/C [10]: 100%
viability, T/C [11]: 105%
viability, T/C [12]: 93.3%
viability, T/C [13]: 128%
viability, T/C [28]: 107%
viability, T/C [29]: 106%
viability, T/C [14]: 108%
viability, T/C [15]: 89.4%
viability, T/C [16]: 106%
viability, T/C [17]: 104%
viability, T/C [30]: 105%
viability, T/C [31]: 112%
viability, T/C [18]: 95%
viability, T/C [19]: 96.2%
viability, T/C [20]: 99.7%
viability, T/C [21]: 119%
viability, T/C [32]: 114%
viability, T/C [33]: 122%
viability, T/C [22]: 116%
viability, T/C [23]: 113%
viability, T/C [24]: 89.4%
viability, T/C [25]: 111%
viability, T/C [34]: 103%
viability, T/C [35]: 128%

Reference: PubChem BioAssay AID1963428 (Molecular Pharmacology Branch, DTP, NCI, 2024)
